# Source: patent publication US10030016B2 (Sunesis Pharmaceuticals, Inc., priority 2009, dated 2018)
# Like-named read-outs stand apart in the source and are kept apart here.
# Key:
# PDK1 = PDK1 (Homo sapiens (Human), UniProt O15530); test: PDK1 kinase assay (coupled PDK1/AKT/FAM-crosstide assay, IMAP fluorescence polarization); type: biochemical; conditions: inhibition of PDK1 in vitro
# Procedure, shortened: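 GST-tagged human PDK1 (aa 51-359, 0.75 nM) from insect cells activated unphosphorylated GST-AKT2 (aa 140-467–PIFtide fusion, 10 nM), which phosphorylated 100 nM FAM-crosstide; 40 μM ATP, pH 7.2 Tris/MgCl2, 30 min at 25° C. IMAP fluorescence polarization read-out; ΔmP versus compound concentration fitted with a 4-parameter curve.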
# [1] = test system: phospho-akt (Thr308) in PC-3 cells; test: Inhibition of phospho-akt (Thr308) in PC-3 cells, MSD phospho-akt 308 ELISA kit; type: cell-based; conditions: inhibition of P308 Akt in PC-3 cells using MSD, 2 hours, no serum, read-out: EC50
# Procedure, shortened: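 PC-3 cells (15,000/well, overnight in 10% FBS medium) treated 2 h with three-fold diluted compounds in serum-free medium; DMSO high and 5 μM wortmannin low controls. Lysates captured on BSA-blocked MSD plates overnight at 4 °C, then 1 h antibody detection at RT; phospho-Akt Thr308 read by MSD electrochemiluminescence.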
# PDK1, sequence (O15530 51-359): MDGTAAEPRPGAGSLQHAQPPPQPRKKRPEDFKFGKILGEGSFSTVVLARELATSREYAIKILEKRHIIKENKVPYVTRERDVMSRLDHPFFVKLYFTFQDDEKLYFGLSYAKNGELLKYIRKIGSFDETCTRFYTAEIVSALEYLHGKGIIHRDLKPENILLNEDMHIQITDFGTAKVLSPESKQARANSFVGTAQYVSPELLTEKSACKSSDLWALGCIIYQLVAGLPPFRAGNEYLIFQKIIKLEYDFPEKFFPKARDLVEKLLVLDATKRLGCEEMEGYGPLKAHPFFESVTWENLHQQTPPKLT
SMILES,IC50 (PDK1) [µM],EC50 ([1]; Homo sapiens) [µM],"EC50 ([1]; Homo sapiens, PC-3, 2 h) [µM]",EC50 [1] [µM]
"Cn1cc(-c2ccc(CNc3ncc(C(F)(F)F)cc3C(=O)NCc3ccc(F)c(F)c3)cc2)c2c(N)ncnc21 [Example 331, 2-(4-(4-amino-7-methyl-7H-pyrrolo[2,3-d]pyrimidin-5-yl)-benzylamino)-N-(3,4-difluorobenzyl)-5-(trifluoromethyl)nicotinamide]",< 0.1,< 1,,
"Cn1nc(-c2ccc(CNc3ncc(C(F)(F)F)cc3C(=O)NCc3ccc(F)c(F)c3)cc2)c2c(N)ncnc21 [Example 332, 2-(4-(4-amino-1-methyl-1H-pyrazolo[3,4-d]pyrimidin-3-yl)-benzylamino)-N-(3,4-difluorobenzyl)-5-(trifluoromethyl)nicotinamide]",< 0.1,1 to 10,,
"Nc1ncnc2c1c(-c1ccc(CNc3ncc(C(F)(F)F)cc3C(=O)NCc3ccc(F)c(F)c3)cc1)cn2CCO [Example 333, 2-(4-(4-amino-7-(2-hydroxyethyl)-7H-pyrrolo[2,3-d]pyrimidin-5-yl)-benzylamino)-N-(3,4-difluorobenzyl)-5-(trifluoromethyl)nicotinamide]",< 0.1,< 1,,
"Nc1ncnc2c1c(-c1ccc(CNc3ncc(C(F)(F)F)cc3C(=O)NCc3ccc(F)c(F)c3)cc1)cn2CCCO [Example 334, 2-(4-(4-amino-7-(3-hydroxypropyl)-7H-pyrrolo[2,3-d]pyrimidin-5-yl)-benzylamino)-N-(3,4-difluorobenzyl)-5-(trifluoromethyl)nicotinamide]",< 0.1,< 1,,
"CC(C)Oc1cc(CNc2ncccc2C(=O)NCc2ccc(F)c(F)c2)cc(-c2c[nH]c3ncc(-c4ccc[nH]4)cc23)c1 [Example 335, 2-(3-(5-(1H-pyrrol-2-yl)-1H-pyrrolo[2,3-b]pyridin-3-yl)-5-isopropoxybenzylamino)-N-(3,4-difluorobenzyl) nicotinamide]",< 0.1,> 10,,
O=C(NCc1ccc(F)c(F)c1)c1cccnc1NCc1cc(-c2c[nH]c3ncc(-c4ccc[nH]4)cc23)ccn1 [Example 336],< 0.1,1 to 10,,
"Cn1c(-c2ccc(CNc3ncc(C(F)(F)F)cc3C(=O)Nc3ccc(F)cc3)cc2)cc2c(N)ncnc21 [Example 337, 2-(4-(4-amino-7-methyl-7H-pyrrolo[2,3-d]pyrimidin-6-yl)-benzylamino)-N-(4-fluorophenyl)-5-(trifluoromethyl)nicotinamide]",< 0.1,1 to 10,,
"Cn1cc(-c2ccc(CNc3ncc(C(F)(F)F)cc3C(=O)Nc3ccc(F)cn3)cc2)c2c(N)ncnc21 [Example 338, 2-(4-(4-amino-7-methyl-7H-pyrrolo[2,3-d]pyrimidin-5-yl)-benzylamino)-N-(5-fluoropyridin-2-yl)-5-(trifluoromethyl)nicotinamide]",< 0.1,1 to 10,,
C[C@H](NC(=O)c1nc(C#N)cnc1NCC1CCC(c2cn(C)c3ncnc(N)c23)CC1)c1ccc(F)c(F)c1 (stereo partly drawn) [Example 339],0.1 to 1,,> 10,
C[C@H](NC(=O)c1nc(C#N)cnc1NCC1CCC(c2cc3c(N)ncnc3n2C)CC1)c1ccc(F)c(F)c1 (stereo partly drawn) [Example 340],> 5,1 to 10,,
CNC(=O)c1cc(S(=O)(=O)NCCCN(C)C)cnc1NCc1ccc(-c2ccc3ncnc(N)c3c2)s1 [Example 341],> 5,> 10,,
CNC(=O)c1cc(S(=O)(=O)NCCO)cnc1NCc1ccc(-c2ccc3ncnc(N)c3c2)s1 [Example 342],> 5,> 10,,
"Nc1ncnc2ccc(-c3ccc(CNc4ncc(S(=O)(=O)NCCO)cc4C(=O)NCc4ccc(F)c(F)c4)s3)cc12 [Example 343, 2-((5-(4-aminoquinazolin-6-yl)thiophen-2-yl)methyl)amino)-(N-(3,4-difluorobenzyl)-5-(N-(2-hydroxyethyl)sulfamoyl)nicotinamide]",< 0.1,< 1,,
CNC(=O)c1cc(S(=O)(=O)NCCN)cnc1NCc1ccc(-c2ccc3ncnc(N)c3c2)s1 [Example 344],> 5,> 10,,
C[C@H](NC(=O)c1cccnc1NCc1ccc(-c2cn(C3CCC3)c3ncnc(N)c23)s1)c1ccc(F)cc1 [Example 345],0.1 to 1,,< 1,
"C[C@H](NC(=O)c1cccnc1NCc1ccc(-c2cn(C3CCC3)c3ncnc(N)c23)cc1)c1ccc(F)cc1 [Example 346, (S)-2-(4-(4-amino-7-cyclobutyl-7H-pyrrolo [2,3-d]pyrimidin-5-yl)benzylamino)-N-(1-(4-fluorophenyl)ethyl)nicotinamide]",0.1 to 1,,< 1,
"C[C@H](NC(=O)c1cc(C#N)cnc1NCc1ccc(-c2cnc(N)c(C(=O)NCC(O)CO)n2)cc1)c1ccc(F)cc1 (stereo partly drawn) [Example 347, 3-amino-6-(4-((5-cyano-3-((S)-1-(4-fluorophenyl)ethylcarbamoyl)pyridin-2-ylamino)methyl)phenyl)-N-(2,3-dihydroxypropyl) pyrazine-2-carboxamide]",< 0.1,,,< 1
"Nc1n[nH]c2ncc(-c3ccc(CNc4ncc(C(F)(F)F)cc4-c4nc5cc(F)ccc5o4)cc3)cc12 [Example 348, 5-(4-((3-(5-fluorobenzo[d]oxazol-2-yl)-5-(trifluoro-methyl)pyridin-2-ylamino)methyl)phenyl)-1H-pyrazolo [3,4-b]pyridin-3-amine]",> 5,> 10,,
"Nc1n[nH]c2ncc(-c3ccc(CNc4ncc(C(F)(F)F)cc4-c4nc5cc(F)ccc5[nH]4)cc3)cc12 [Example 349, 5-(4-((3-(5-fluoro-1H-benzo[d]imidazol-2-yl)-5-(trifluoromethyl)pyridin-2-ylamino)methyl)phenyl)-1H-pyrazolo[3,4-b] pyridin-3-amine]",> 5,> 10,,
"C[C@H](NC(=O)c1nc(C#N)cnc1N[C@@H](CO)c1ccc(-c2cnc3[nH]nc(N)c3c2)cc1)c1ccc(F)c(F)c1 [Example 351, 3-((R)-1-(4-(3-amino-1H-pyrazolo[3,4-b]pyridin-5-yl)phenyl)-2-hydroxy-ethylamino)-6-cyano-N-((S)-1-(3,4-difluorophenyl)ethyl)pyrazine-2-carboxamide]",1 to 5,> 10,,
N#Cc1cnc(NCc2ccc(-c3c[nH]c4ncnc(N)c34)cc2)c(-c2nccs2)c1 [Example 352],< 0.1,> 10,,
"C[C@H](NC(=O)c1nc(C#N)cnc1N[C@H](CO)c1ccc(-c2cnc3[nH]nc(N)c3c2)cc1)c1ccc(F)c(F)c1 [Example 353, 3-((S)-1-(4-(3-amino-1H-pyrazolo[3,4-b]pyridin-5-yl)phenyl)-2-hydroxy-ethylamino)-6-cyano-N-((S)-1-(3,4-difluorophenyl)ethyl)pyrazine-2-carboxamide]",< 0.1,< 1,,
"Cn1cnc2cnc3ccc(-c4ccc(CNc5ncccc5C(=O)NCc5cncc(F)c5)s4)cc3c21 [Example 354, N-((5-fluoropyridin-3-yl)methyl)-2-((5-(1-methyl-1H-imidazo[4,5-c]quinolin-8-yl)thiophen-2-ylmethyl)amino)nicotinamide]",< 0.1,< 1,,
"Cc1cc(-c2ccc(CNc3ncc(C(F)(F)F)cc3C(=O)NCc3ccc(F)c(F)c3)cc2)cnc1N [Example 355, 2-(4-(6-amino-5-methylpyridin-3-yl)benzylamino)-N-(3,4-difluorobenzyl)-5-(trifluoromethyl)nicotinamide]",< 0.1,1 to 10,,
"N#Cc1cnc(NCc2ccc(-c3cnc4[nH]c(=O)[nH]c4c3)cc2)c(C(=O)NCc2ccc(F)c(F)c2)c1 [Example 356, 5-cyano-N-(3,4-difluorobenzyl)-2-(4-(2-oxo-2,3-dihydro-1H-imidazo[4,5-b]pyridin-6-yl)benzylamino)nicotinamide]",< 0.1,< 1,,
"C[C@H](NC(=O)c1nccnc1NCc1ccc(-c2cnc3[nH]c(=O)[nH]c3c2)cc1)c1ccc(F)cc1 [Example 357, (S)-N-(1-(4-fluorophenyl)ethyl)-3-(4-(2-oxo-2,3-dihydro-1H-imidazo[4,5-b]pyridin-6-yl)benzylamino) pyrazine-2-carboxamide]",< 0.1,< 1,,
"N#Cc1cnc(NCc2ccc(-c3cnc4[nH]c(=O)[nH]c4c3)cc2)c(C(=O)NCc2ccc(F)cc2)c1 [Example 358, 5-cyano-N-(4-fluorobenzyl)-2-(4-(2-oxo-2,3-dihydro-1H-imidazo[4,5-b]pyridin-6-yl)benzylamino)nicotinamide]",< 0.1,< 1,,
"C[C@H](NC(=O)c1cccnc1NCc1ccc(-c2cnc3[nH]c(=O)[nH]c3c2)cc1)c1ccc(F)cc1 [Example 359, (S)-N-(1-(4-fluorophenyl)ethyl)-2-(4-(2-oxo-2,3-dihydro-1H-imidazo[4,5-b]pyridin-6-yl)benzylamino) nicotinamide]",< 0.1,< 1,,
"O=C(NCc1ccc(F)cc1)c1cccnc1NCc1ccc(-c2cnc3[nH]c(=O)[nH]c3c2)cc1 [Example 360, N-(4-fluorobenzyl)-2-(4-(2-oxo-2,3-dihydro-1H-imidazo [4,5-b]pyridin-6-yl)benzyl-amino)nicotinamide]",< 0.1,< 1,,
"C[C@H](NC(=O)c1cc(C#N)cnc1NCc1ccc(-c2cnc3[nH]c(=O)[nH]c3c2)cc1)c1ccc(F)c(F)c1 [Example 361, (S)-5-cyano-N-(1-(3,4-difluorophenyl)ethyl)-2-(4-(2-oxo-2,3-dihydro-1H-imidazo[4,5-b]pyridin-6-yl)benzylamino) nicotinamide]",< 0.1,< 1,,
